# In ChEMBL document CHEMBL1201862, “PubChem BioAssay data set” (2004):
# Activity calls are given as the source filed them.
# Columns and labels:
# [1] = viability loss in HeLa cells – cytotoxicity control for MgcRacGAP inhibitor project, dose response (AID 624300); assay type: functional
# Hexokinase HKDC1 = molecular target: T1, Hexokinase HKDC1 (Homo sapiens, UniProt Q2TB90); test: inhibition of HKDC1 glucose phosphorylation – biochemical, W721R variant, dose response (AID 504729); assay type: functional
# T1 sequence (Q2TB90 whole entry): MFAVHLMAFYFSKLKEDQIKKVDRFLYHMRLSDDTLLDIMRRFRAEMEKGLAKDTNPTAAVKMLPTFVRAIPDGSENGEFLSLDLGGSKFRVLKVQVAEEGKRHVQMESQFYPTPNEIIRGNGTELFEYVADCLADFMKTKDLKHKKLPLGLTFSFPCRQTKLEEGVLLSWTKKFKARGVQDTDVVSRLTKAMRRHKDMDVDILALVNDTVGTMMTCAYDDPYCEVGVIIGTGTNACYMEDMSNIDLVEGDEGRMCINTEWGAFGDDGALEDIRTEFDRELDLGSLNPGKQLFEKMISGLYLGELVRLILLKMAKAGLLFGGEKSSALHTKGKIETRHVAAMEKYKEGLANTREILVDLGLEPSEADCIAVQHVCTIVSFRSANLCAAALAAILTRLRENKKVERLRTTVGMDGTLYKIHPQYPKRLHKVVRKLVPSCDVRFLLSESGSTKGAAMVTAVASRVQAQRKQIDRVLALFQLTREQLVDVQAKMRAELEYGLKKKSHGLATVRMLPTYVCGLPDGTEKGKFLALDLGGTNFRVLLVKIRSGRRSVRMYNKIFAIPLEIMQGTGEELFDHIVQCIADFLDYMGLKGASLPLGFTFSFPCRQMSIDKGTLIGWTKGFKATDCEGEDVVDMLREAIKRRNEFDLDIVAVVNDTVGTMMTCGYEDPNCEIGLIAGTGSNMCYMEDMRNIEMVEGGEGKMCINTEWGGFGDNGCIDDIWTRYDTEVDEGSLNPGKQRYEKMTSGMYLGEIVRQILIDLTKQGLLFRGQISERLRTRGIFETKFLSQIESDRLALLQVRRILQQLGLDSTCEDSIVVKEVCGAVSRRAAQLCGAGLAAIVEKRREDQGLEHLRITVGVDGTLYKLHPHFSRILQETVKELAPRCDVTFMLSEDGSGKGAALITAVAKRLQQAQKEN
# [2] = molecular target: T2, Replicative DNA helicase DnaB (Mycobacterium tuberculosis, UniProt P9WMR3); test: DnaB intein splicing inhibitors, dose response, biochemical, cell-free fluorescence (AID 449749); assay type: functional
# T2 sequence (P9WMR3 whole entry): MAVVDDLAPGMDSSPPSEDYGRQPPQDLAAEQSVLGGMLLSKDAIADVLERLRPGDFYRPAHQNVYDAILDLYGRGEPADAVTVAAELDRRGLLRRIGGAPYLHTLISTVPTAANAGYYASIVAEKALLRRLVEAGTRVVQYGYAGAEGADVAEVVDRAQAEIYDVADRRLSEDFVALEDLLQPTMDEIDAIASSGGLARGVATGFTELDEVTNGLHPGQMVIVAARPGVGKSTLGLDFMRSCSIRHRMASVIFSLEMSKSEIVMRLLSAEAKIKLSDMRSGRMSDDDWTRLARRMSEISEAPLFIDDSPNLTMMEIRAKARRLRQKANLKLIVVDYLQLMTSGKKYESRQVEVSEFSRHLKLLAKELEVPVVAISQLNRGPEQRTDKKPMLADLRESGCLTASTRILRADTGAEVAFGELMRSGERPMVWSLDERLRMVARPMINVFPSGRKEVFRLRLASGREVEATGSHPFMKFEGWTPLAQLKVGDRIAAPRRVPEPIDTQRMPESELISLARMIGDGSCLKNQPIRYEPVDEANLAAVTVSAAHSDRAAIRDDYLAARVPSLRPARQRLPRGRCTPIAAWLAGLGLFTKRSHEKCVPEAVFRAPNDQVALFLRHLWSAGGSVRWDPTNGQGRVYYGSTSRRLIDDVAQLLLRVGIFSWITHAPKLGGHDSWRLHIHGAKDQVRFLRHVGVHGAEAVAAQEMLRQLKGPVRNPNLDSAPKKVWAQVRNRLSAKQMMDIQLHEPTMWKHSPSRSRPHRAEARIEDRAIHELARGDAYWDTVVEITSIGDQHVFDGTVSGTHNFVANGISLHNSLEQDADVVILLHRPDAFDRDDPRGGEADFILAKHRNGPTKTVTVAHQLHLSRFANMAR
# [3] = molecular target: Serine/threonine-protein kinase Chk1 (Homo sapiens, UniProt O14757); assay type: functional;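 further: measured as one member of a kinome-wide kinase profiling panel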
# Chain of Serine/threonine-protein kinase Chk1 (O14757 whole entry): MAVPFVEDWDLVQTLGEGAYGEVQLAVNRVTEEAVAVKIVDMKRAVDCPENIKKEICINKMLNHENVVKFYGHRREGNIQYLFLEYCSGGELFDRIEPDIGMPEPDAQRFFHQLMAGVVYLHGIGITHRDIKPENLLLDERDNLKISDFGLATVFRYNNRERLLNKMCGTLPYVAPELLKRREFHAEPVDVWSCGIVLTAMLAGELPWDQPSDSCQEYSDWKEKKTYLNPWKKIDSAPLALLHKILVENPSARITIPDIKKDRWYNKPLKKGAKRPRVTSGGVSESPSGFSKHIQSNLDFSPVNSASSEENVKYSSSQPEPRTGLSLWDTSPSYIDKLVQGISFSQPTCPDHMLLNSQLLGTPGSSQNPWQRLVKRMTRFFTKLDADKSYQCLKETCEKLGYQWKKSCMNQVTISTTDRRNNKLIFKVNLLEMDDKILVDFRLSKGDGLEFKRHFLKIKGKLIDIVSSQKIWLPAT
# Aurora kinase A = Aurora kinase A (Homo sapiens, UniProt O14965); assay type: functional;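 further: value from the Navigating the Kinome kinase panel profiling, panel entry STK6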
# Chain of Aurora kinase A (O14965 whole entry): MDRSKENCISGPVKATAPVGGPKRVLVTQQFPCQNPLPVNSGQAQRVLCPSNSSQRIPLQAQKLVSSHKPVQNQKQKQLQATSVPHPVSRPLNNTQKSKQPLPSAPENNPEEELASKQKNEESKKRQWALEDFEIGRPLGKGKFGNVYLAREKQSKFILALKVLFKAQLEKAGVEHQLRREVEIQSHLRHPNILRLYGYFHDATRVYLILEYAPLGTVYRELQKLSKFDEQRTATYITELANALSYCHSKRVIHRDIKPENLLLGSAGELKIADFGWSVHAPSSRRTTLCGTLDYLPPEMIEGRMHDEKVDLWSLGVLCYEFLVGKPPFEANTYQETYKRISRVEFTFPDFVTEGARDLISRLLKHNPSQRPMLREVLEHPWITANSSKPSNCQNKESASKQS
# [4] = molecular target: Glycogen synthase kinase-3 alpha (Homo sapiens, UniProt P49840); assay type: functional;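 further: GSK3A result taken from a broad kinome-wide kinase panel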
# Chain of Glycogen synthase kinase-3 alpha (P49840 whole entry): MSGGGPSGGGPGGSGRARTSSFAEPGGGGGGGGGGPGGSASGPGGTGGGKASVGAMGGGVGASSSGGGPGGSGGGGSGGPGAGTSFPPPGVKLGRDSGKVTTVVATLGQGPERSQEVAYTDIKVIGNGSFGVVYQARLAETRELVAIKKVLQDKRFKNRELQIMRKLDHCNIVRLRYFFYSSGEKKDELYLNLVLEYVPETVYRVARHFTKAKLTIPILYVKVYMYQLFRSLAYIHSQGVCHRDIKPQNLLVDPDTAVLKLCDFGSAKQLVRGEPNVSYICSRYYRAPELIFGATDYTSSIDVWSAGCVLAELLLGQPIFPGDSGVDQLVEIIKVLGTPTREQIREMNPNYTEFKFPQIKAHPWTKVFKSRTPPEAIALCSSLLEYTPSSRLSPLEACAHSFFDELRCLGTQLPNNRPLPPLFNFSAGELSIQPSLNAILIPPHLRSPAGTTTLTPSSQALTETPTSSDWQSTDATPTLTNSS
# [5] = molecular target: ALK tyrosine kinase receptor (Homo sapiens, UniProt Q9UM73); assay type: functional;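 further: ALK tested as one member of a kinase panel screen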
# Chain of ALK tyrosine kinase receptor (Q9UM73 whole entry): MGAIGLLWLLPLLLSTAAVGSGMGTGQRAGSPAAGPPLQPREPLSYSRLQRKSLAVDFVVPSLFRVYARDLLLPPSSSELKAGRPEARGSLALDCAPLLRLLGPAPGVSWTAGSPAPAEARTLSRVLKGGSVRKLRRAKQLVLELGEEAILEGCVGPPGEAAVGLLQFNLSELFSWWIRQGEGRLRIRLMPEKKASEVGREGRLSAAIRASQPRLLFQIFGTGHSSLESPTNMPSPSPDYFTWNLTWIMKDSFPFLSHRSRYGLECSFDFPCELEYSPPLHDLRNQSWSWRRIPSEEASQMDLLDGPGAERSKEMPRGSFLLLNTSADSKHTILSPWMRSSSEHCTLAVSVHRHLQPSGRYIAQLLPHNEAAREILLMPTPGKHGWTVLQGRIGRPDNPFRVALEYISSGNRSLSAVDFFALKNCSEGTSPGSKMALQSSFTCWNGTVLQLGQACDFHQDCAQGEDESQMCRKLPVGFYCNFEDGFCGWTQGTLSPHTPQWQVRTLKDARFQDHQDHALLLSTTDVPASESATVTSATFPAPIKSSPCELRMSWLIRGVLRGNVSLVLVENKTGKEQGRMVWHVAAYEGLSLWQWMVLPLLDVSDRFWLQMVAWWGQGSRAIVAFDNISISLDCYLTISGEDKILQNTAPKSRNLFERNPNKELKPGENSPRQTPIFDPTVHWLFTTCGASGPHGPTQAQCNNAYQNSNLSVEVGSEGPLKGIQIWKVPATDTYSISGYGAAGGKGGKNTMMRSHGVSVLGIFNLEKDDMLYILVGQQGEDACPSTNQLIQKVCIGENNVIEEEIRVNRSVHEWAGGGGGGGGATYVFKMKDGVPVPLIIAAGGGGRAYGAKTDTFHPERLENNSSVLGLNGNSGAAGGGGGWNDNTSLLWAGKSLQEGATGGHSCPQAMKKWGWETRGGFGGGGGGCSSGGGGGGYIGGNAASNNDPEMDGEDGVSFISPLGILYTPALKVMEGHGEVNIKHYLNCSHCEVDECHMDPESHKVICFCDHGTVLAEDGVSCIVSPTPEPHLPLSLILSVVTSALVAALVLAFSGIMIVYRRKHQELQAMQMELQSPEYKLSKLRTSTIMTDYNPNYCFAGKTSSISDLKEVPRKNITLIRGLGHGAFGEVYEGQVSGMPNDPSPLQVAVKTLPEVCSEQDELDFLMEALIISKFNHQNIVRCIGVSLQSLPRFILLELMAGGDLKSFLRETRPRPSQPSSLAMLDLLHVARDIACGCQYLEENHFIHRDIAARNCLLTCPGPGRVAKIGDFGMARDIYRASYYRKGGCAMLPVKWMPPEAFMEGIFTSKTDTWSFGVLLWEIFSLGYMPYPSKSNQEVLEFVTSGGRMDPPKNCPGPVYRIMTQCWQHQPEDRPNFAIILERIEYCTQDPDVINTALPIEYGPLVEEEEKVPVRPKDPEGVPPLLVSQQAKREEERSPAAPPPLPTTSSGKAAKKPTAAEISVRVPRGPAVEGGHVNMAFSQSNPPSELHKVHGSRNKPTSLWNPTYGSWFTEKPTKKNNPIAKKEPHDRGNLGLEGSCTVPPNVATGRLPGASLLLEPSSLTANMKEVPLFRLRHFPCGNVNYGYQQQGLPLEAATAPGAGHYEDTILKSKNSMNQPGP
# Aurora kinase B = Aurora kinase B (Homo sapiens, UniProt Q96GD4); assay type: functional
# Chain of Aurora kinase B (Q96GD4 whole entry): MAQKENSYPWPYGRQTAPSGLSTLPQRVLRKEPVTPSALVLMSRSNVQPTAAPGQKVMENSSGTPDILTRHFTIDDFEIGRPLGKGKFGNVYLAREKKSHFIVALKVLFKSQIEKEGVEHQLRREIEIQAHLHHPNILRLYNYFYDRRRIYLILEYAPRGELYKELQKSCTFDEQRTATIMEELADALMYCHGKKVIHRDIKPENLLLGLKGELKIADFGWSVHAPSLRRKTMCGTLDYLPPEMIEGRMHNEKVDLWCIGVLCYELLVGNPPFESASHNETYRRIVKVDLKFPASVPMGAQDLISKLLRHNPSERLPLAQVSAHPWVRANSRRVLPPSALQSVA
# [6] = molecular target: Leukocyte tyrosine kinase receptor (Homo sapiens, UniProt P29376); test: Navigating the Kinome. Panel member name: LTK; assay type: functional
# Chain of Leukocyte tyrosine kinase receptor (P29376 whole entry): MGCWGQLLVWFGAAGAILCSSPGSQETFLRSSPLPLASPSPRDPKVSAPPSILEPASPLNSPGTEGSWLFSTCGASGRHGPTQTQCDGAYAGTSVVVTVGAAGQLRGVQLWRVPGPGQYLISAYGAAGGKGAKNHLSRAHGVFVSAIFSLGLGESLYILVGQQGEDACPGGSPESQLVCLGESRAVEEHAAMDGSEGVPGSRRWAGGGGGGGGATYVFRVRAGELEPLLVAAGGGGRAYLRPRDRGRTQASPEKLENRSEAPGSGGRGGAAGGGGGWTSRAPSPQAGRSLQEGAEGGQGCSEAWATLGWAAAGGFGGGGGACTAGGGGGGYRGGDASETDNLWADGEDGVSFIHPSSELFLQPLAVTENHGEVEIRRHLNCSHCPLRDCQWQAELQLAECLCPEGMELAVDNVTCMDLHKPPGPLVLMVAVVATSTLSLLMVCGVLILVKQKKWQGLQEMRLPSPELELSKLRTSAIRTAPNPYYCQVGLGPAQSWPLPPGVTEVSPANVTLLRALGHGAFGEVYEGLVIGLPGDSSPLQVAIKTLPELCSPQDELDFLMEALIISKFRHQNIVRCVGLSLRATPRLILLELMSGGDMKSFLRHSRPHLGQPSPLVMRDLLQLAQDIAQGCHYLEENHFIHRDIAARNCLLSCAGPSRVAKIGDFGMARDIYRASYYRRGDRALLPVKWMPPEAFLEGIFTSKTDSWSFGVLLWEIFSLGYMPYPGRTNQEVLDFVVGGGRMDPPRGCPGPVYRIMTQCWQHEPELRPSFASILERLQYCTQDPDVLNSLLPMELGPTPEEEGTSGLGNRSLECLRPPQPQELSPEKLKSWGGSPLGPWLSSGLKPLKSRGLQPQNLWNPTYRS
# Large T antigen = Large T antigen (Simian virus 40, UniProt P03070); assay type: functional, Betapolyomavirus macacae;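 further: Confirmatory-stage PubChem screen for compounds that inhibit SV40 T antigen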
# Chain of Large T antigen (P03070 whole entry): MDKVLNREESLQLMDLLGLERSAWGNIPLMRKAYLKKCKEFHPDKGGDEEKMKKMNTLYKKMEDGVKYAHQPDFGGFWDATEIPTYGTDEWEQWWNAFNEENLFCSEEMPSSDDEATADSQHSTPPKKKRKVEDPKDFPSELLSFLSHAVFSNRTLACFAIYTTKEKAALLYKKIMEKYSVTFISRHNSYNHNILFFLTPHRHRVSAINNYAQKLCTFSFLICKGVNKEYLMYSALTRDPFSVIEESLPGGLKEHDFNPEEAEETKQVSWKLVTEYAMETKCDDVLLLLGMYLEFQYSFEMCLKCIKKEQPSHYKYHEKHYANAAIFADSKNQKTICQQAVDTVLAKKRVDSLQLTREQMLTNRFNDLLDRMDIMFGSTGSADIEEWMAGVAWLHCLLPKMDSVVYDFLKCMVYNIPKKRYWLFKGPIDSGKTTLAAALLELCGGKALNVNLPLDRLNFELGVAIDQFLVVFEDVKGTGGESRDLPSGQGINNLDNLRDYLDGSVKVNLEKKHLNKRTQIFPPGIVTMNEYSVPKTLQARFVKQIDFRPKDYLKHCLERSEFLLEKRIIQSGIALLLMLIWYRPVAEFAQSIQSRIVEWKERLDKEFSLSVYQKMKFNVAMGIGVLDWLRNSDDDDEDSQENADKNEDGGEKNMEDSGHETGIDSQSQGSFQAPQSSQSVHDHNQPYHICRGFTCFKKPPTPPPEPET
structure (smiles),measurement,setting,value
CC(=O)N(C1=C(Cl)C(=O)c2ccccc2C1=O)c1ccc(C(=O)O)cc1,CC50,[1],36.1 µM (active)
same,IC50,Hexokinase HKDC1,6.23 µM (active)
CC1(C)C=C2C(=NN(c3ccccc3)C(N)=C2C#N)CO1,AC50,[2],> 380 µM (inconclusive)
Cc1ccc(-c2cc3nc(Br)cnc3[nH]2)cc1,Ki,[3],> 3.16 µM (inactive)
same,Ki,Aurora kinase A,> 1.58 µM (inactive)
same,Ki,[4],> 3.98 µM (inactive)
same,Ki,[5],> 6.31 µM (inactive)
same,Ki,Aurora kinase B,0.794 µM (active)
same,Ki,[6],> 2.51 µM (inactive)
O=C1C=C(O)c2c(O)cc(O)c(O)c2C1=O,IC50,Large T antigen,> 100 µM (active)
